# Measurements published in patent US10798946B2, “Method for managing flea beetles of the family chrysomelidae in Brassica crops” (BASF Agrochemical Products B.V., priority 2015, dated 2020).
# Tested on: Psylliodes chrysocephala (PSYICH; rape flea beetle)
# Experiment: Field trial: flea beetle attack on winter oilseed rape, counted as crop plants with eating damage
# Format: in vivo
# Procedure: A field trial to investigate methods for flea beetle management in Brassica crops was carried out under the regime of Good Experimental Practice (GEP) in Germany, federal state of Niedersachsen. The trial was set up in a 3 time replicated, one factorial randomized block design. The plot size was 45 m^2.
# The winter oilseed rape (WOSR) variety used in the trial was the commercial hybrid “Edimax CL®” carrying a tolerance against imidazolinone herbicides. As trap plant Sinapis alba, variety “Ascot” was used.
# All WOSR seeds had been commercially treated with the product Aatiram65®, containing the active ingredient Thiram (650 g/I), at a dose rate of […] seeds to protect the seed from emergence diseases.
# Only the WOSR seeds for the respective plots had been treated with 160 ml/100 kg seeds with a flowable concentrate containing 8% of Bacillus amyloliquefaciens ssp. plantarum MBI600 as flea beetle repellant.
# For the trap plants, no seed treatment was applied.
# At the day of seeding, the trap plants were seeded first in the respective plots at a seed rate of 3.6 k/ha using a plot seeder. Afterwards, the plots with WOSR treated with Aatiram65® only were seeded, then WOSR treated on top with Bacillus amyloliquefaciens ssp. plantarum MBI600. Thus, any contamination/mixing of the different seeds and seed treatments was prevented. In both cases, a WOSR seeding rate of 50 seeds per m^2 was targeted.
# In order to control any undesired vegetation besides the crop and the trap plants, the commercial broad spectrum herbicide Butisan Top® was applied at a dose rate of 2.0 I/ha pre-emergence of the crop and trap plants.
# After the crop was mature enough to overcome flea beetle damage (2-4 true leaf stage (BBCH 12-14)), the plots were sprayed with Pulsar 40 (active ingredient Imazamox) at a dose rate of 0.875 I/ha.
# The intensity of the flea beetle attack was evaluated 26 days after seeding (DAS) and 33 DAS by counting the number of crop plants with eating damage. On the first assessment, the crop plants were in 1-2 true leaf stage (BBCH 11-12), at the later assessment, the crop plants had developed to the 1-4 true leaf stage (BBCH 11-14).
substance,measurement,setting,value
Bacillus amyloliquefaciens ssp. plantarum MBI600 [MBI 600],infestation / number of crop plants attacked by flea beetles (in words),"field trial, both days of assessment",did not reduce the infestation
same,plants with eating damage (26 DAS),"number of crop plants with eating damage, 26 days after seeding, WOSR Edimax CL, BBCH 11-12, MBI600 seed treatment 160 ml/100 kg seeds of 8% flowable concentrate",34
same,plants with eating damage (33 DAS),"number of crop plants with eating damage, 33 days after seeding, WOSR Edimax CL, BBCH 11-14, MBI600 seed treatment 160 ml/100 kg seeds of 8% flowable concentrate",34
same,"plants with eating damage (26 DAS), rel.","relative to treatment 1 (none) = 100, 26 days after seeding",103
same,"plants with eating damage (33 DAS), rel.","relative to treatment 1 (none) = 100, 33 days after seeding",91
